Reference: patent publication EP0220011A2, “Use of azabicloalkylbenzamides in the treatment of gastrointestinal motility disorders, migraine, emesis, cluster headaches, trigeminal neuralgia and arrhythmia” (BEECHAM GROUP PLC, priority 1985, dated 1987)

Legend:
Format in all cases: in vivo
[1] = Intraluminal pressure in the Heidenhain pouch of the dog; conditions: dose of O.Olmg/kg i.v.; fasted conscious dog, chronic Heidenhain pouch; for at least 4-5 minutes
Method: Pressure changes were recorded via a saline filled catheter inserted, with airtight closure, into the fistula of a chronic Heidenhain pouch of the previously fasted and lightly restrained conscious dog. The catheter was connected to a physiological pressure transducer and pressure changes recorded on a hot wire pen recorder. Compounds were administered when the motility was in a phase of relatively low activity and the dose range determined which induced an increase in the amplitude of rhythmical contractions for a period of at least 4-5 minutes.

[2] = Intragastric pressure in the rat; conditions: dose of 0.13 mg/kg s.c.; fasted conscious restrained rats; 40 minute period following dosing
Method: Intragastric pressure changes were recorded from fasted conscious and restrained rats using a saline filled catheter inserted into the lumen of the stomach via a permanent gastric fistula. The catheter was connected to a physiological pressure transducer and pressure changes recorded on a hot wire pen recorder. An index of activity was obtained by measuring the average height of pressure waves during 10 minute periods. Values for 4 such periods were obtained during assessment of spontaneous activity prior to dosing and for the 40 minute period following dosing with compound or vehicle. The Student's " t " test was applied to the mean values obtained for activity prior to and post treatment. Groups of 10 animals were used for each treatment.

[3] = system: von Bezold-Jarisch reflex evoked by 5-HT; test: Antagonism of the von Bezold-Jarisch reflex; conditions: iv; anaesthetised rat; reduces the 5-HT-evoked heart rate response to 50% of the control response
Method: The compounds were evaluated for antagonism of the von Bezold-Jarisch reflex evoked by 5-HT in the anaesthetised rat according to the following method: • Male rats, 250-350g, were anaesthetised with urethane (1.25g/kg intraperitoneally) and blood pressure and heart rate recorded as described by Fozard J.R. et al., J. Cardiovasc. Pharmacol. 2, 229-245 (1^80). A submaximal dose of 5-HT (usually 6ug/kg) was given repeatedly by the intravenous route and changes in heart rate quantified. Compounds were given intravenously and the concentration required to reduce the 5-HT-evoked response to 50% of the control response (ED50) was then determined.

Compound: COc1cc(N)c(Br)cc1C(=O)NC1CC2CCC(C1)N2C (stereo not drawn) [Example 1, (endo)-4-Amino-5-bromo-2-methoxy-N-(8-methyl-8-aza-bicyclo[3,2,l]oct-3-yl) benzamide]
- increase in the amplitude of rhythmical contractions (intraluminal pressure) [1]: active

Compound: COc1cc(N)c(Cl)cc1C(=O)NC1CC2CCC(C1)N2C (stereo not drawn) [Compound No. 20, (endo)-4-amino-5-chloro-2-methoxy-N-(8-methyl-8-azabicyclo[3.2.1]octyl) benzamide]
- Intragastric pressure changes (average height of pressure waves) [2]: active
- ED50 [3]: 0.8 ± 0.2 µg/kg
